Reference: patent publication US12590099B2, “Inhibitors of histone deacetylase useful for the treatment or prevention of HIV infection” (Merck Sharp & Dohme LLC, priority 2018, dated 2026)
Read-outs that look alike come from different tables or passages of the source.

Tests used:
Recombinant human HDAC8 = target: T1, Recombinant human HDAC8 (Homo sapiens, UniProt Q9BY41); assay: Human HDAC enzyme inhibitor Fluor-de-Lys assay, HDAC8; assay type: biochemical
T1 construct: purchased Enzo Life Sciences BML-SE145-0100
T1 sequence (Q9BY41 1-377): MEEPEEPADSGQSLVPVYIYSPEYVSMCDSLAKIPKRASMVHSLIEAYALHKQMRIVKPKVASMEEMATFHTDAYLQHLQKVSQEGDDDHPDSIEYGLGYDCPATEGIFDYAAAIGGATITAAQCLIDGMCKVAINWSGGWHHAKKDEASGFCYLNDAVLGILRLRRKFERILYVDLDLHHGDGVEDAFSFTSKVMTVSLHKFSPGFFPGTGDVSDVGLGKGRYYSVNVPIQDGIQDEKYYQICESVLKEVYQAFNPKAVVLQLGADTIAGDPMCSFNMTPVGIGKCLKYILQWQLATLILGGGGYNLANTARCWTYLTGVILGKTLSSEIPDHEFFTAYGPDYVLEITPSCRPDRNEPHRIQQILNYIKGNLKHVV

[1] = target: T2, Recombinant human HDAC3/SMRT heterodimer (Homo sapiens, UniProt O15379); assay: Human HDAC enzyme inhibitor Fluor-de-Lys assay, HDAC3/SMRT; assay type: biochemical
T2 construct: FLAG (C); made in house

Recombinant human HDAC1 = target: T3, Recombinant human HDAC1 (Homo sapiens, UniProt Q13547); assay: Human HDAC enzyme inhibitor Fluor-de-Lys assay, HDAC1; assay type: biochemical
T3 construct: FLAG (C); made in house
Procedure, shortened: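 Fluor-de-Lys format at room temperature (23° C.): compounds titrated 10-point, 1:3, preincubated with HDAC before substrate addition; HDAC1 run at 0.3 nM enzyme with 20 μM BML-KI104. Developer with excess HDAC inhibitor ends the reaction, and trypsin-liberated AMC fluorescence is the read-out.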

KARN cells (Jurkat 2C4) = assay: cells; assay type: cell-based; details: Homo sapiens, Jurkat
Procedure, shortened: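 Luminescence (Steady-Glo, 10 min, room temperature) measured next day in KARN Jurkat 2C4 cells given compounds at up to 40 μM final with 0.4% DMSO. Percent activation normalised to DMSO (0%) and 2 μM SAHA (100%), fitted by 4-parameter curve.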

[2] = recombinant human HDAC8, Fluor-de-Lys assay
[3] = recombinant human HDAC3/SMRT, Fluor-de-Lys assay
[4] = recombinant human HDAC1, Fluor-de-Lys assay
[5] = read-out: Karn EC50 (nM) 0.1% NHS, 0.1% normal human serum, luciferase induction, 100% = 2 μM SAHA
[6] = read-out: Karn EC50 (nM) 5% NHS, 5% normal human serum, luciferase induction, 100% = 2 μM SAHA
[7] = read-out: Karn EC50 (nM) 0.1% NHS, 0.1% normal human serum
[8] = read-out: Karn EC50 (nM) 5% NHS, 5% normal human serum

T2 sequence (O15379 whole entry): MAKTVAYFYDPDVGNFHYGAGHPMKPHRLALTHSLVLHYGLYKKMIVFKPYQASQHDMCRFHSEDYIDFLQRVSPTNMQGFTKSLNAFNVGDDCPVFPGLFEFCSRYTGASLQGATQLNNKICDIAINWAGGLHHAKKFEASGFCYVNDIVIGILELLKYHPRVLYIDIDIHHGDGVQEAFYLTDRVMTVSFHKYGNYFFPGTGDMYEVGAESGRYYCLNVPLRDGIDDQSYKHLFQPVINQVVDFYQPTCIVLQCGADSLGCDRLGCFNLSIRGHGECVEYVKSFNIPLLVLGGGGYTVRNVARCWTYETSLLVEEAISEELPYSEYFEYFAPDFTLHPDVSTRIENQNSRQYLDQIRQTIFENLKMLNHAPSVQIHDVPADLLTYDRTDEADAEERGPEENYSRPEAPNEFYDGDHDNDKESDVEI
T2 sequence (Q9Y618 1-899 partner limits assumed): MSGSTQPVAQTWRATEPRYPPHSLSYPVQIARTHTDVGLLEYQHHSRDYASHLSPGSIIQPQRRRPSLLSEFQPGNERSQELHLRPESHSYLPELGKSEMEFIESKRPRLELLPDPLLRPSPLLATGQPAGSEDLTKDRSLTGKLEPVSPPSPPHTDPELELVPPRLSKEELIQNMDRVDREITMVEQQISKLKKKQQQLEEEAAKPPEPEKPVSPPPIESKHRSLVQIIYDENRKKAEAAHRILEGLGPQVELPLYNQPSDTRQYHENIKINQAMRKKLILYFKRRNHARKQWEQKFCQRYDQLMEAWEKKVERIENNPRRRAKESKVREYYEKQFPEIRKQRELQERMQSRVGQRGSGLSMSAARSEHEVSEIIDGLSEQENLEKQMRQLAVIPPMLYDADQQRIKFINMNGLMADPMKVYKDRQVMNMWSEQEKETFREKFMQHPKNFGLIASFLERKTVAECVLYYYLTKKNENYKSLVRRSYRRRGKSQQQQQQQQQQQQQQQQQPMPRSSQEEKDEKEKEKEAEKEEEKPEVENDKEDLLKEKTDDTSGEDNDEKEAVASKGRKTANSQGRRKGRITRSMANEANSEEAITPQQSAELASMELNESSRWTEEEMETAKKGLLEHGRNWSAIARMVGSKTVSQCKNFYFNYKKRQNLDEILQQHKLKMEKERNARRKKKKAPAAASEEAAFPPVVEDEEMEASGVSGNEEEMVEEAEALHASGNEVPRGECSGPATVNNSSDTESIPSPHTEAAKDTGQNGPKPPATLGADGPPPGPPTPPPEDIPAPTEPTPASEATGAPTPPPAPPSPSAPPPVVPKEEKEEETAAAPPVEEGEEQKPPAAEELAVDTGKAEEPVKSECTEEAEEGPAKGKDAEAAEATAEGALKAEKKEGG
T3 sequence (Q13547 whole entry): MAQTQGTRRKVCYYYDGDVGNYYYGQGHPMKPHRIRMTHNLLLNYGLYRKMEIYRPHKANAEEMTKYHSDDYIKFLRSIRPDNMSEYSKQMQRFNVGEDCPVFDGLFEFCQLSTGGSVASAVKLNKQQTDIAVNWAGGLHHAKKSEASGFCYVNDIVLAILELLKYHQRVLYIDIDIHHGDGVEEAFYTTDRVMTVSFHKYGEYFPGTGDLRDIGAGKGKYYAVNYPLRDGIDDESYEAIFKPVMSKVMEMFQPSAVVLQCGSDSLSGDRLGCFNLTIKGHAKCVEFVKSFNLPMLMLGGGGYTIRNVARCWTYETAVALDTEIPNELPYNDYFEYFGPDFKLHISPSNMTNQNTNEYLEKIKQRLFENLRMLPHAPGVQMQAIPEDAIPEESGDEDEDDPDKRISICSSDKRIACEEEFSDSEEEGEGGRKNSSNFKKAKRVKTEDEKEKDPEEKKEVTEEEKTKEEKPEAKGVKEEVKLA

Structure (SMILES): CCC(=O)CCCCC[C@H](NC(=O)CC1CC2(CNC2)C1)c1ncc(-c2ccccc2)[nH]1 [Compound 297]
- IC50 (Recombinant human HDAC8; [2]): 8.46 µM
- IC50 [1, 3]: 9.69 nM
- IC50 (Recombinant human HDAC1; [4]): 27.9 nM
- EC50 (KARN cells (Jurkat 2C4); [5]): 5840 nM
- EC50 (KARN cells (Jurkat 2C4); [6]): 15800 nM

Structure (SMILES): CCC(=O)CCCCC[C@H](NC(=O)[C@H]1CC12CCN(C)CC2)c1ncc(-c2ccc(F)cc2)[nH]1 [Compound 280]
- IC50 (Recombinant human HDAC8; [2]): 10.8 µM
- IC50 [1, 3]: 10.6 nM
- IC50 (Recombinant human HDAC1; [4]): 30 nM
- EC50 (KARN cells (Jurkat 2C4); [5]): 1020 nM
- EC50 (KARN cells (Jurkat 2C4); [6]): 919 nM

Structure (SMILES): CN1CCC2(CC1)C[C@@H]2C(=O)N[C@@H](CCCCCC(=O)CC1CC1)c1ncc(-c2ccc(F)cc2)[nH]1 [Compound 84]
- IC50 (Recombinant human HDAC8): 14.3 µM
- IC50 [1]: 16.3 nM
- IC50 (Recombinant human HDAC1): 9.95 nM
- EC50 (KARN cells (Jurkat 2C4); [7]): 632 nM
- EC50 (KARN cells (Jurkat 2C4); [8]): 1180 nM

Structure (SMILES): CCC(=O)CCCCC[C@H](NC(=O)C1=NOC2(CCN(C)CC2)C1)c1ncc(-c2cc3cccnc3cc2OC)o1 [Compound 223]
- IC50 (Recombinant human HDAC8; [2]): > 0.9 µM
- IC50 [1, 3]: 2.06 nM
- IC50 (Recombinant human HDAC1; [4]): 1.54 nM
- EC50 (KARN cells (Jurkat 2C4); [5]): 272 nM
- EC50 (KARN cells (Jurkat 2C4); [6]): 559 nM

Structure (SMILES): CCC(=O)CCCCC[C@H](NC(=O)CC1CC2(C1)CN(C)C2)c1ncc(-c2ccccc2)[nH]1 [Compound 307]
- IC50 (Recombinant human HDAC8; [2]): 13.5 µM
- IC50 [1, 3]: 16.9 nM
- IC50 (Recombinant human HDAC1; [4]): 62.9 nM
- EC50 (KARN cells (Jurkat 2C4); [5]): 3700 nM
- EC50 (KARN cells (Jurkat 2C4); [6]): 2570 nM

Structure (SMILES): CCC(=O)CCCCC[C@H](NC(=O)[C@H]1CC12CCN(CC)CC2)c1ncc(-c2ccc3nn(C4CC4)cc3c2)[nH]1 [Compound 238]
- IC50 (Recombinant human HDAC8; [2]): 6.5 µM
- IC50 [1, 3]: 0.27 nM
- IC50 (Recombinant human HDAC1; [4]): 0.22 nM
- EC50 (KARN cells (Jurkat 2C4); [5]): 66 nM
- EC50 (KARN cells (Jurkat 2C4); [6]): 45 nM

Structure (SMILES): CCC(=O)CCCCC[C@H](NC(=O)[C@H]1CC12CCN(C)CC2)c1ncc(-c2ccc(F)cc2F)[nH]1 [Compound 289]
- IC50 (Recombinant human HDAC8; [2]): 3.75 µM
- IC50 [1, 3]: 21.7 nM
- IC50 (Recombinant human HDAC1; [4]): 63.1 nM
- EC50 (KARN cells (Jurkat 2C4); [5]): 1060 nM
- EC50 (KARN cells (Jurkat 2C4); [6]): 1090 nM

Structure (SMILES): CCC(=O)CCCCC[C@H](NC(=O)[C@H]1CC12CCN(C(C)C)CC2)c1ncc(-c2ccc3nc(C)ccc3c2)[nH]1 [Compound 83]
- IC50 (Recombinant human HDAC8): 15.2 µM
- IC50 [1]: < 1.5 nM
- IC50 (Recombinant human HDAC1): < 1.5 nM
- EC50 (KARN cells (Jurkat 2C4); [7]): 64 nM
- EC50 (KARN cells (Jurkat 2C4); [8]): 60 nM

Structure (SMILES): CCC(=O)CCCCC[C@H](NC(=O)[C@H]1CC12CCN(CC)CC2)c1ncc(-c2ccc3c(ccc(=O)n3C)c2)o1 [Compound 97]
- IC50 (Recombinant human HDAC8): > 45 µM
- IC50 [1]: 4.38 nM
- IC50 (Recombinant human HDAC1): 6.52 nM
- EC50 (KARN cells (Jurkat 2C4); [7]): 563 nM
- EC50 (KARN cells (Jurkat 2C4); [8]): 660 nM

Structure (SMILES): CCC(=O)CCCCC[C@H](NC(=O)CC1CC2(C1)CN(C(C)C)C2)c1ncc(-c2cc3ccccc3nc2OC)[nH]1 [Compound 273]
- IC50 (Recombinant human HDAC8; [2]): 1.96 µM
- IC50 [1, 3]: < 1.5 nM
- IC50 (Recombinant human HDAC1; [4]): < 1.5 nM
- EC50 (KARN cells (Jurkat 2C4); [5]): 111 nM
- EC50 (KARN cells (Jurkat 2C4); [6]): 438 nM

Structure (SMILES): CCC(=O)CCCCC[C@H](NC(=O)[C@H]1CC12CCN(CC1CC1)CC2)c1ncc(-c2cc3ccn(C)c(=O)c3cc2OC)o1 [Compound 229]
- IC50 (Recombinant human HDAC8; [2]): > 0.9 µM
- IC50 [1, 3]: 0.21 nM
- IC50 (Recombinant human HDAC1; [4]): 0.09 nM
- EC50 (KARN cells (Jurkat 2C4); [5]): 31 nM
- EC50 (KARN cells (Jurkat 2C4); [6]): 29 nM

Structure (SMILES): CCC(=O)CCCCC[C@H](NC(=O)[C@H]1CC12CCN(C)CC2)c1ncc(-c2ccc3ncoc3c2)[nH]1 [Compound 89]
- IC50 (Recombinant human HDAC8): 9.7 µM
- IC50 [1]: 2.27 nM
- IC50 (Recombinant human HDAC1): 3.63 nM
- EC50 (KARN cells (Jurkat 2C4); [7]): 219 nM
- EC50 (KARN cells (Jurkat 2C4); [8]): 237 nM

Structure (SMILES): CCC(=O)CCCCC[C@H](NC(=O)C1CC12CCN(CC)CC2)c1nc(-c2ccc(F)cc2)[nH]c1-c1cn[nH]c1 (stereo partly drawn) [Compound 249]
- IC50 (Recombinant human HDAC8; [2]): 31.5 µM
- IC50 [1, 3]: 20.1 nM
- IC50 (Recombinant human HDAC1; [4]): 17.4 nM
- EC50 (KARN cells (Jurkat 2C4); [5]): > 40000 nM

Structure (SMILES): CCC(=O)CCCCC[C@H](NC(=O)C1=NOC2(CCN(C)CC2)C1)c1ncc(-c2cc3ccc(C)nc3cc2F)[nH]1 [Compound 232]
- IC50 (Recombinant human HDAC8; [2]): > 0.9 µM
- IC50 [1, 3]: 4.47 nM
- IC50 (Recombinant human HDAC1; [4]): 1.33 nM
- EC50 (KARN cells (Jurkat 2C4); [5]): 144 nM
- EC50 (KARN cells (Jurkat 2C4); [6]): 248 nM

Structure (SMILES): CCC(=O)CCCCC[C@H](NC(=O)[C@H]1CC12CCN(C)CC2)c1ncc(-c2ccc3c(c2)c2ccccc2n3C)[nH]1 [Compound 265]
- IC50 (Recombinant human HDAC8; [2]): 4.6 µM
- IC50 [1, 3]: 3.86 nM
- IC50 (Recombinant human HDAC1; [4]): 5.14 nM
- EC50 (KARN cells (Jurkat 2C4); [5]): 142 nM
- EC50 (KARN cells (Jurkat 2C4); [6]): 370 nM

Structure (SMILES): CCC(=O)CCCCC[C@H](NC(=O)C1=NOC2(CCN(CC3CC3)CC2)C1)c1ncc(-c2cc3ccc(C)nc3cc2F)[nH]1 [Compound 234]
- IC50 (Recombinant human HDAC8; [2]): > 0.9 µM
- IC50 [1, 3]: 2.99 nM
- IC50 (Recombinant human HDAC1; [4]): 0.56 nM
- EC50 (KARN cells (Jurkat 2C4); [5]): 160 nM
- EC50 (KARN cells (Jurkat 2C4); [6]): 262 nM

Structure (SMILES): CCC(=O)CCCCC[C@H](NC(=O)C1=NOC2(CCN(CC)CC2)C1)c1ncc(-c2cc3ccc(=O)n(C)c3cc2OC)o1 [Compound 235]
- IC50 (Recombinant human HDAC8; [2]): > 0.9 µM
- IC50 [1, 3]: 2.19 nM
- IC50 (Recombinant human HDAC1; [4]): 0.7 nM
- EC50 (KARN cells (Jurkat 2C4); [5]): 249 nM
- EC50 (KARN cells (Jurkat 2C4); [6]): 411 nM
